Our source for the GI50 and TGI values is PubChem BioAssay (NCI).

Values joined by “and” are separate entries in the source; they are usually repeats but may differ in a detail not shown here. Identical values can stand only once.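 Briefly, cells in 96-well plates were exposed to five compound concentrations for 48 h, and endpoints were estimated by linear interpolation. GI50: concentration for 50% inhibition of growth. The concentration for full growth arrest is given as TGI.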

Test systems include DLD-1 colon; XF 498 CNS; LXFL 529 NSCLC; DMS 114 small cell lung; SNB-78 CNS; RXF-631 renal; KM20L2 colon; DMS 273 small cell lung; MDA-N; SN12K1 renal; P388 leukemia.
What all share (experiment): NCI tumour cell line growth inhibition, 48 h

Turning to `CCCCOC(=O)CNC(=O)OC/C=C/C#CC#C/C=C/COC(=O)NCC(=O)OCCCC`, the GI50 with DLD-1 colon, in the assay with LXFL 529 NSCLC, in the assay with DMS 114 small cell lung, with RXF-631 renal and with KM20L2 colon was greater than 100 µM each time. The TGI is greater than 100 µM in the assay on DLD-1 colon; greater than 10 µM in the assay with XF 498 CNS; greater than 100 µM in the assay with LXFL 529 NSCLC; greater than 100 µM in the assay with DMS 114 small cell lung; greater than 10 µM in the assay on SNB-78 CNS; greater than 100 µM in the assay on RXF-631 renal. In addition, in the assay on KM20L2 colon, the TGI was greater than 100 µM.

For the compound `O=[N+]([O-])c1cccc(C2=NN(c3ccccc3)C[N+](c3ccc(Br)cc3)=N2)c1`, the TGI in the assay on DLD-1 colon, with XF 498 CNS, with LXFL 529 NSCLC, with SNB-78 CNS, in the assay on KM20L2 colon and in the assay with DMS 273 small cell lung was greater than 100 µM each time.

Regarding `O=c1/c(=C/c2ccccc2[N+](=O)[O-])sc2nnc(-c3ccco3)n12`, the TGI in the assay with DLD-1 colon was 97.1 µM; with XF 498 CNS, 34.5 µM; in the assay with LXFL 529 NSCLC, 34.5 µM; in the assay with DMS 114 small cell lung it was 40.4 µM; with SNB-78 CNS it was 72.3 µM; in the assay on KM20L2 colon, greater than 100 µM. This compound also showed a TGI with DMS 273 small cell lung greater than 100 µM.

For the compound `COc1cc(C(=O)N2CCN(C=O)C2=S)cc(OC)c1OC`, in the assay on MDA-N, the GI50 is 17.9 µM and the TGI turned out to be 34.5 µM.

`CC(=O)CCn1c(=S)sc2ccccc21`: in the assay with MDA-N, the TGI was greater than 100 µM.

Consider `CCC(=O)CC(=O)CCC(=O)Nc1cc(C)ccc1C`, for which the TGI in the assay on DLD-1 colon, with XF 498 CNS, in the assay with LXFL 529 NSCLC, in the assay on SNB-78 CNS and in the assay with KM20L2 colon was greater than 100 µM in each case.

With `O=C1CCC(Cl)=CC2CCCN12` (stereo not given), the TGI with DLD-1 colon, in the assay on LXFL 529 NSCLC, in the assay with DMS 114 small cell lung, with SNB-78 CNS and in the assay with KM20L2 colon was greater than 100 µM each time.

As for `N#CN/C(N)=N/CO`, the TGI with DLD-1 colon is greater than 87.8 µM; with XF 498 CNS, greater than 100 µM; with LXFL 529 NSCLC, greater than 100 µM; with DMS 114 small cell lung, greater than 60.9 µM; with SNB-78 CNS, greater than 100 µM; in the assay with RXF-631 renal, greater than 100 µM. For the same compound, the TGI in the assay on KM20L2 colon and in the assay with DMS 273 small cell lung was greater than 100 µM in each case.

In turn, `O=C(/C=C/c1ccccc1)CCC1C(=O)c2ccccc2C1=O` had a TGI with MDA-N greater than 100 µM.

For `CC(C)(C)NNC(=O)CCn1[nH]c(=O)c(Cl)c(Cl)c1=O`, the TGI in the assay on DLD-1 colon, in the assay on XF 498 CNS, with LXFL 529 NSCLC, in the assay on DMS 114 small cell lung, with RXF-631 renal and with KM20L2 colon was greater than 100 µM each time. Moreover, the TGI in the assay on DMS 273 small cell lung is greater than 100 µM.

On to `COc1cccc2c1C(=O)c1c(O)c3c(c(O)c1C2=O)C[C@@](O)(C(=O)CO)C[C@@H]3OC1CC(N)CC(C)O1` (stereo not given in full), for which the GI50 with DLD-1 colon is 0.127 µM; in the assay with XF 498 CNS, 0.0251 µM and 0.052 µM; with DMS 114 small cell lung it was 0.0238 µM and 0.0476 µM; with SNB-78 CNS, 0.085 µM; in the assay on KM20L2 colon, 0.0545 µM; in the assay on MDA-N, 0.0272 µM. Further, the GI50 with DMS 273 small cell lung was 0.0134 µM and 0.0303 µM. The TGI was 1.18 µM and 2.67 µM in the assay with DLD-1 colon; 0.144 µM and 0.101 µM with XF 498 CNS; 0.0846 µM in the assay with SN12K1 renal; 0.951 µM in the assay on LXFL 529 NSCLC; 0.167 µM and 0.299 µM in the assay on DMS 114 small cell lung; 0.588 µM with P388 leukemia. The TGI is 1.73 µM and 2.02 µM in the assay on SNB-78 CNS; 0.9 µM in the assay with RXF-631 renal; 0.528 µM and 1.41 µM in the assay with KM20L2 colon; 0.274 µM and 0.132 µM with MDA-N; 0.202 µM and 0.129 µM with DMS 273 small cell lung.

`CCOC(=O)C(C#N)C1=CC(=O)C(=O)c2ccc(OC)cc21` (stereo not given): the TGI with MDA-N is 17.1 µM.

Consider `COc1ccc2occ(CCC(=O)O)c2c1`, for which the TGI in the assay on DLD-1 colon, in the assay on XF 498 CNS, in the assay on LXFL 529 NSCLC, in the assay with DMS 114 small cell lung, in the assay with SNB-78 CNS and in the assay on KM20L2 colon was greater than 100 µM in each case. Besides, the TGI in the assay on DMS 273 small cell lung is greater than 100 µM.

`COC(=O)C[C@](O)(CCCC(C)(C)O)C(=O)O[C@@H]1C(OC)=C[C@]23CCCN2CCc2cc4c(cc2[C@H]13)OCO4`: the TGI in the assay with DLD-1 colon came to 0.228 µM; in the assay with XF 498 CNS, 0.0391 µM; in the assay on SN12K1 renal, 0.0481 µM; in the assay on DMS 114 small cell lung, 0.0162 µM; with P388 leukemia, 0.0101 µM; in the assay on SNB-78 CNS it was 0.285 µM. Moreover, the TGI is 0.338 µM in the assay on KM20L2 colon, greater than 25 µM in the assay on MDA-N and less than 0.0204 µM with DMS 273 small cell lung.

With `Clc1ccc2c(c1)[nH]c1c2nc2ccccn21`, the GI50 in the assay with XF 498 CNS was 35.9 µM and 16 µM; in the assay on LXFL 529 NSCLC, 35.9 µM and 16.2 µM. Besides, the TGI in the assay with XF 498 CNS was 89.1 µM and 29.8 µM; with LXFL 529 NSCLC it was > 100 µM and 30 µM; with SNB-78 CNS it was 83.9 µM and 61.6 µM; with RXF-631 renal, > 100 µM and 69.2 µM; with KM20L2 colon it was 74.9 µM and 28.7 µM.

For `O=C(Nc1ccn(CCO)c(=O)n1)c1ccccc1`, the TGI in the assay on DLD-1 colon, in the assay on LXFL 529 NSCLC, in the assay with DMS 114 small cell lung, in the assay on SNB-78 CNS, in the assay with RXF-631 renal and in the assay on KM20L2 colon was greater than 100 µM in each case. The compound further came in with a TGI with DMS 273 small cell lung greater than 100 µM.

In the case of `Cc1ccc(S(=O)(=O)N(C=O)N=C2CCN(Cc3ccccc3)CC2)cc1`, the TGI in the assay on DLD-1 colon, in the assay on XF 498 CNS, in the assay on LXFL 529 NSCLC, in the assay with SNB-78 CNS, with RXF-631 renal and in the assay on KM20L2 colon was greater than 100 µM each time. In addition, the TGI in the assay with DMS 273 small cell lung was greater than 100 µM.
